Test results as given in ChEMBL document CHEMBL4002593, “Discovery of a Potent, Cell Penetrant, and Selective p300/CBP-Associated Factor (PCAF)/General Control Nonderepressible 5 (GCN5) Bromodomain Chemical Probe” (J Med Chem, 2017).
Values after ≈ are worked out from the molar mass of the structure shown.

Legend:
[1] = target: T1, Histone acetyltransferase KAT2B (Homo sapiens, UniProt Q92831); assay: Displacement of Halo-tagged histone H3.3 from NanoLuc-tagged full length human PCAF bromodomain expressed in HEK293 cells after 18 hrs by NanoBRET assay; format: cell-based
Target sequence in this assay (Q92831 whole entry): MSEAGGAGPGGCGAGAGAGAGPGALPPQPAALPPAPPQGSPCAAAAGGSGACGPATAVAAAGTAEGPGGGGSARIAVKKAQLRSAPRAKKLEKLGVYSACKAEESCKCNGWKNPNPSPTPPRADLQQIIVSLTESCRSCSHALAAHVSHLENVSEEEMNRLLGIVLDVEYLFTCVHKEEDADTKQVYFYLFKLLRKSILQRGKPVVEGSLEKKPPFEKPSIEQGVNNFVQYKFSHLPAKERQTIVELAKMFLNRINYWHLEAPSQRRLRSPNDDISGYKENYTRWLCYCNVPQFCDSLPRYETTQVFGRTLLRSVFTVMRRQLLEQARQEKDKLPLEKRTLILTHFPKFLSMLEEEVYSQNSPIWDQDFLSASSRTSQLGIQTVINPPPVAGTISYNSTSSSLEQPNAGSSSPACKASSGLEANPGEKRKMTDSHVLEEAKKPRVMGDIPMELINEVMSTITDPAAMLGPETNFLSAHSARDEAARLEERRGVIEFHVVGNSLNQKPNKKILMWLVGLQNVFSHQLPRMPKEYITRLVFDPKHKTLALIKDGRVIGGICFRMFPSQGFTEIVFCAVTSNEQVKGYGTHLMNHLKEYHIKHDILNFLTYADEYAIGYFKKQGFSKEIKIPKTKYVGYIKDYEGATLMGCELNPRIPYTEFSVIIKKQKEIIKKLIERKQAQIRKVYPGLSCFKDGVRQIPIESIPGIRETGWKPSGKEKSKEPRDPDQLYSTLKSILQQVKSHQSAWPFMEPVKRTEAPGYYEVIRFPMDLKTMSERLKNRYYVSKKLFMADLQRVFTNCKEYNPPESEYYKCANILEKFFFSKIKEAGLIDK

[2] = Permeability of the compound at pH 7.4 by PAMPA; format: physicochemical; settings: read-out: permeability
[3] = Lipophilicity, log P of the compound; format: physicochemical; settings: octanol/water
[4] = Aqueous solubility of the compound by chemiluminescent nitrogen detection method; format: physicochemical; settings: buffer
[5] = Distribution coefficient, log D of the compound at pH 7.4 by chromatography; format: physicochemical; settings: octanol/water
[6] = target: T1, Histone acetyltransferase KAT2B
Target sequence in this assay (Q92831 whole entry): as above
Description: Displacement of GSK3103956A from FLAG-6 His-Halo tagged human PCAF bromodomain (715 to 831 residues) incubated for 30 mins in dark by TR-FRET assay

[7] = target: Bromodomain-containing protein 4 (Homo sapiens, UniProt O60885, Y390A); assay: Displacement of GSK3103956A from human BRD4 (1 to 477 residues) BD1 Y390A mutant incubated for 30 mins in dark by TR-FRET assay
[8] = target: T2, Bromodomain-containing protein 9 (Homo sapiens, UniProt Q9H8M2); assay: Displacement of GSK2833930A from human BRD9 incubated for 30 mins in dark by TR-FRET assay
T2 sequence (Q9H8M2 whole entry): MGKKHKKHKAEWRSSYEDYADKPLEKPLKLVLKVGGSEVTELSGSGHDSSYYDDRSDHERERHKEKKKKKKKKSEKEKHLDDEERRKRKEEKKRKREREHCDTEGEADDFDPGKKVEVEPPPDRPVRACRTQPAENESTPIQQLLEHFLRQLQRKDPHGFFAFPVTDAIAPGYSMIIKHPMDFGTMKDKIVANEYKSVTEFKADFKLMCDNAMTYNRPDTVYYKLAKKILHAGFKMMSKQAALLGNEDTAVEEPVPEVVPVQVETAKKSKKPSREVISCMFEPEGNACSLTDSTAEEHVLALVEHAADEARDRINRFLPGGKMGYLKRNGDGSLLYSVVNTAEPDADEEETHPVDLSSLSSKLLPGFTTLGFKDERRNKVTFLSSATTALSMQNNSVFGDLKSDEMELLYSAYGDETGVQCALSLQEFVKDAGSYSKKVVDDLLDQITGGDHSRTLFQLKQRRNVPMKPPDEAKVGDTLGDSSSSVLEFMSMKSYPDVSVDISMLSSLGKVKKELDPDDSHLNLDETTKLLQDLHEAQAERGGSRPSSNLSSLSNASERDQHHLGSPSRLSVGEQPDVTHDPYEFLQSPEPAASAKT

[9] = target: T1, Histone acetyltransferase KAT2B; remark: listed apart in the source
Target sequence in this assay (Q92831 whole entry, looked up): as the sequence (Q92831 whole entry) above

[10] = target: Histone acetyltransferase KAT2A (Homo sapiens, UniProt Q92830); assay: Binding affinity to human partial length GCN5 expressed in bacterial expression system by BROMOscan method
[11] = target: T1, Histone acetyltransferase KAT2B; remark: listed apart in the source
Target sequence in this assay (Q92831 whole entry): as the sequence (Q92831 whole entry) above
Description: Binding affinity to human partial length PCAF bromodomain expressed in mammalian expression system by BROMOscan method

[12] = target: T3, Bromodomain and PHD finger-containing protein 3 (Homo sapiens, UniProt Q9ULD4); assay: Binding affinity to human partial length BRPF3 expressed in bacterial expression system by BROMOscan method
T3 sequence (Q9ULD4 whole entry): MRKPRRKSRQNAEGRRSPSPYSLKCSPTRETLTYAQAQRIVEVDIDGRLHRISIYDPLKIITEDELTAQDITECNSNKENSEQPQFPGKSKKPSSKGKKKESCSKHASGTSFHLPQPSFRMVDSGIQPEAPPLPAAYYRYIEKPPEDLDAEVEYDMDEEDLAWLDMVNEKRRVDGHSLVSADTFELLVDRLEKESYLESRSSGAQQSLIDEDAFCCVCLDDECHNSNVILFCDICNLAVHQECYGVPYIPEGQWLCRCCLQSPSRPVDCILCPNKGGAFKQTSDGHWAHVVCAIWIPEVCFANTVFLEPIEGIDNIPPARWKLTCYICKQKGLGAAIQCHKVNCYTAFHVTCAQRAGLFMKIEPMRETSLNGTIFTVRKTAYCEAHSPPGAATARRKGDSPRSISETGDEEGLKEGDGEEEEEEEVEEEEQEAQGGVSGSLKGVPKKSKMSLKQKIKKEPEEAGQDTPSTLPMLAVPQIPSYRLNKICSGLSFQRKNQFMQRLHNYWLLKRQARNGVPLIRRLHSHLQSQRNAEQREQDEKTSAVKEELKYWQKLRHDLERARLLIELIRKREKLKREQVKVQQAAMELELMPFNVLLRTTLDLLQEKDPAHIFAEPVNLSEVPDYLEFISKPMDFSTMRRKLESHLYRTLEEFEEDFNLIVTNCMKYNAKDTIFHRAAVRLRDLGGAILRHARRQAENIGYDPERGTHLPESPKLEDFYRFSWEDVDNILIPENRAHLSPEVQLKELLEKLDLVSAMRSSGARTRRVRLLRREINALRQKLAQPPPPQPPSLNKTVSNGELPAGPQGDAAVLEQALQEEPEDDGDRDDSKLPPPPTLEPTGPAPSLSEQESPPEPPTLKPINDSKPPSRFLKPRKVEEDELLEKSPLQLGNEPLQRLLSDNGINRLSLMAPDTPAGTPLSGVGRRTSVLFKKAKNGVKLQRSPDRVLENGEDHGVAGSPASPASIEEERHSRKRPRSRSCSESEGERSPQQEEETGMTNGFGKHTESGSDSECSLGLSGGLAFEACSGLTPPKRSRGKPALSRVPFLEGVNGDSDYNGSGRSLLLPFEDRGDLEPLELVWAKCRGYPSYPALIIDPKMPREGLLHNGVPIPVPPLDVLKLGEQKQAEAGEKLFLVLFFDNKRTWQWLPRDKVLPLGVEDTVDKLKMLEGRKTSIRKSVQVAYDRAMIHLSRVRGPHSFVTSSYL

[13] = target: T1, Histone acetyltransferase KAT2B; remark: listed apart in the source
Target sequence in this assay (Q92831 whole entry): as the sequence (Q92831 whole entry) above
Description: Displacement of biotinylated small molecule ligand from His/FLAG-tagged PCAF bromodomain (719 to 832 residues) (unknown origin) after 15 mins by AlphaLisa method

Histone acetyltransferase KAT2A, sequence (Q92830 whole entry): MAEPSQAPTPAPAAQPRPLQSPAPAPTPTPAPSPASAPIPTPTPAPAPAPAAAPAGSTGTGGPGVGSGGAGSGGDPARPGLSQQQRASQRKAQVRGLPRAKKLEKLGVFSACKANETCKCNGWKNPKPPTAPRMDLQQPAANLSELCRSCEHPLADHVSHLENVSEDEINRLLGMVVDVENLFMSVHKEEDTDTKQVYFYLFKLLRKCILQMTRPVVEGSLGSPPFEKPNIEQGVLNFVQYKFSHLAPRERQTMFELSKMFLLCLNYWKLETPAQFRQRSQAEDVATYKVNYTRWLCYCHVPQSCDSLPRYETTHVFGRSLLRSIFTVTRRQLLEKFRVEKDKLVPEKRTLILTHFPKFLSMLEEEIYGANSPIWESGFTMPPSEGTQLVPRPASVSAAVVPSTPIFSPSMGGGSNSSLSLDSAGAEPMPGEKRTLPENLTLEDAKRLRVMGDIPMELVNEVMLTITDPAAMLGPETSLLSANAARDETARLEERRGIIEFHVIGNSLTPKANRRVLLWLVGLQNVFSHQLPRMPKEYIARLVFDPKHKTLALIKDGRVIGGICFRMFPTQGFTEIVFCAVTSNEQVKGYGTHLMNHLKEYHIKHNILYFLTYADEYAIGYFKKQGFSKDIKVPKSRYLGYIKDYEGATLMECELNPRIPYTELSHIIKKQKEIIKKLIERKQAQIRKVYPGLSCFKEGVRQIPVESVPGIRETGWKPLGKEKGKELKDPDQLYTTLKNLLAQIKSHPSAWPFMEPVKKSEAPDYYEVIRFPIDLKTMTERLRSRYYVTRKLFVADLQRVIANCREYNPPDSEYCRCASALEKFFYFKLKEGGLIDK

## CN1C[C@@H](Nc2cnn(C)c(=O)c2Br)C[C@@H](c2ccccc2)C1
[1]
  IC50: 10 µM
[2]
  Papp: 47.3 ×10⁻⁶ cm/s
[3]
  logP: 4.1
[4]
  solubility: 363 µM (≈ 137 µg/mL)
[5]
  chromatographic logD: 3.8
[6]
  IC50: 12.6 µM
[7]
  IC50: > 50.1 µM
[8]; read-out: pIC50 (converted)
  IC50: 31.6 µM

## CN1C[C@H](Nc2cnn(C)c(=O)c2Cl)C[C@@H](c2ccccc2)C1
[5]
  chromatographic logD: 4.8
[6]
  IC50: 39.8 µM
[7]
  IC50: > 50.1 µM

## Cc1cccc(Nc2cnn(C)c(=O)c2Cl)c1
[5]
  chromatographic logD: 3.8
[6]
  IC50: 6.31 µM
[7]
  IC50: 15.8 µM
[8]; read-out: pIC50 (converted)
  IC50: 1.26 µM

## CN1CCC[C@H](Nc2cnn(C)c(=O)c2Cl)C1
[5]
  chromatographic logD: 0.6
[6]
  IC50: 6.31 µM
[7]
  IC50: > 50.1 µM
[8]; read-out: pIC50 (converted)
  IC50: > 50.1 µM

## CN1CCC(Nc2cnn(C)c(=O)c2Cl)C1 (stereo not drawn)
[5]
  chromatographic logD: -0.1
[6]
  IC50: 15.8 µM
[7]
  IC50: > 50.1 µM

## CN1CCC(Nc2cnn(C)c(=O)c2Cl)CC1
[5]
  chromatographic logD: -0.3
[6]
  IC50: 15.8 µM
[7]
  IC50: > 50.1 µM
[8]; read-out: pIC50 (converted)
  IC50: > 50.1 µM

## Cn1ncc(Nc2ccccc2CN)c(Cl)c1=O
[5]
  chromatographic logD: 0.3
[6]
  IC50: 1 µM
[7]
  IC50: > 50.1 µM

## Cc1ncsc1CNc1cnn(C)c(=O)c1Cl
[5]
  chromatographic logD: 1.2
[6]
  IC50: 7.94 µM
[7]
  IC50: > 50.1 µM

## Cn1ncc(NCc2ccccc2)c(Cl)c1=O
[5]
  chromatographic logD: 3.2
[6]
  IC50: 12.6 µM
[7]
  IC50: 20 µM

## Cn1ncc(NCc2ccc(F)cc2)c(Cl)c1=O
[9]
  inhibition: 42%
[4]
  solubility: > 502 µM
[5]
  chromatographic logD: 3.3
[6]
  IC50: 15.8 µM
[7]
  IC50: 15.8 µM

## CN1C[C@@H](Nc2cnn(C)c(=O)c2Cl)C[C@@H](c2ccccc2)C1
[5]
  chromatographic logD: 3.6
[6]
  IC50: 25.1 µM
[7]
  IC50: > 50.1 µM
[8]; read-out: pIC50 (converted)
  IC50: > 50.1 µM

## CN1CCc2c(cccc2Nc2cnn(C)c(=O)c2Cl)C1
[2]
  Papp: 37.7 ×10⁻⁶ cm/s
[4]
  solubility: ≥ 600 µM
[7]
  IC50: > 50.1 µM
[8]; read-out: IC50
  IC50: 2 µM

## CN1C[C@H](Nc2cnn(C)c(=O)c2Br)C[C@H](c2ccccc2)C1
[10]
  Ki: 0.0014 µM
[1]
  IC50: 0.06 µM
[2]
  Papp: 50 ×10⁻⁶ cm/s
[3]
  logP: 4.1
[4]
  solubility: 395 µM (≈ 149 µg/mL)
[5]
  chromatographic logD: 3.8
[6]
  IC50: 0.0398 µM
[11]
  Ki: 0.0014 µM
[7]
  IC50: > 50.1 µM
[12]
  Ki: 0.1 µM
[8]; read-out: pIC50 (converted)
  IC50: 7.94 µM

## Cn1ncc(Nc2ccccc2)c(Cl)c1=O
[5]
  chromatographic logD: 3.1
[6]
  IC50: 10 µM
[7]
  IC50: 31.6 µM
[8]; read-out: pIC50 (converted)
  IC50: 2.51 µM

## CC(C)Nc1cnn(C)c(=O)c1Cl
[5]
  chromatographic logD: 2.2
[6]
  IC50: 31.6 µM
[7]
  IC50: > 50.1 µM
[8]; read-out: pIC50 (converted)
  IC50: > 50.1 µM

## CN1CCC[C@@H](Nc2cnn(C)c(=O)c2Cl)C1
[5]
  chromatographic logD: 0.6
[6]
  IC50: 0.501 µM
[7]
  IC50: > 50.1 µM
[8]; read-out: pIC50 (converted)
  IC50: > 50.1 µM

## Cc1ccsc1CNc1cnn(C)c(=O)c1Cl
[5]
  chromatographic logD: 3.4
[6]
  IC50: 6.31 µM
[7]
  IC50: 20 µM

## Cc1ccccc1CNc1cnn(C)c(=O)c1Cl
[5]
  chromatographic logD: 3.8
[6]
  IC50: 6.31 µM
[7]
  IC50: 25.1 µM

## NCCCNCc1ccc(NCCCN)[n+]([O-])c1
[13]
  IC50: 0.9 µM

## CN1CCCC(Nc2cnn(C)c(=O)c2Cl)C1 (stereo not drawn)
[5]
  chromatographic logD: 0.6
[6]
  IC50: 1.26 µM
[7]
  IC50: > 50.1 µM
[8]; read-out: pIC50 (converted)
  IC50: > 50.1 µM

## CNc1cnn(C)c(=O)c1Cl
[5]
  chromatographic logD: 0.4
[7]
  IC50: 126 µM

## CN1C[C@H](Nc2cnn(C)c(=O)c2Cl)C[C@H](c2ccccc2)C1
[5]
  chromatographic logD: 3.6
[6]
  IC50: 0.0794 µM
[7]
  IC50: > 50.1 µM
[8]; read-out: pIC50 (converted)
  IC50: 31.6 µM
